One test deals with T1, TGFBR1 (Homo sapiens, UniProt P36897).
T1 construct: purchased Eurofins DiscoverX (KINOMEscan scanEDGE 97)
Put plainly: KINOMEscan competition binding. The note with it: OR0642 1 µM; read-out: %Control. As for the experimental part:
(§1) Kinome profiling was provided by Eurofins DiscoverX Corporation. Determination of the % control activity for 97 kinases was obtained through an active site-directed competition binding assay that quantitatively measure interactions between compound and kinases. OR0642 was used at 1 μM.
(§2) Supplementary Table 3. KINOMEscan™ Profiling of OR0642. Competition binding assay to quantitatively measure interactions between OR0642 (1 µM) and 97 human kinases and disease relevant mutant variants.
(§3) Target Gene Symbol %Control Target Gene Symbol %Control […]

The next test deals with T2, ROCK2 (Homo sapiens, UniProt O75116).
T2 construct: purchased Eurofins DiscoverX (KINOMEscan scanEDGE 97)
Nature of the test: KINOMEscan competition binding. The note with it: OR0642 1 µM; read-out: %Control. As for the experimental part:
as §1, §2, §3

The next test deals with T3, PIM2 (Homo sapiens, UniProt Q9P1W9).
T3 construct: purchased Eurofins DiscoverX (KINOMEscan scanEDGE 97)
Nature of the test: KINOMEscan competition binding. To be noted: OR0642 1 µM; read-out: %Control. The procedure:
as §1, §2, §3

The target of the next test is T4, RET (Homo sapiens, UniProt P07949).
T4 construct: purchased Eurofins DiscoverX (KINOMEscan scanEDGE 97)
Put plainly: KINOMEscan competition binding. The note with it: OR0642 1 µM; read-out: %Control. The procedure: as §1, §2, §3

Another test deals with T5, PIM3 (Homo sapiens, UniProt Q86V86).
T5 construct: purchased Eurofins DiscoverX (KINOMEscan scanEDGE 97)
Nature of the test: KINOMEscan competition binding. To be noted: OR0642 1 µM; read-out: %Control. As for the experimental part: as §1, §2, §3

The target in test [1] is T6, TYK2(JH1domain-catalytic) (Homo sapiens, UniProt P29597).
T6 construct: TYK2(JH1domain-catalytic); purchased Eurofins DiscoverX (KINOMEscan scanEDGE 97)
Nature of the test: KINOMEscan competition binding. The note with it: OR0642 1 µM; read-out: %Control. The procedure:
as §1, §2, §3

The target in the next test is T7, VEGFR2 (Homo sapiens, UniProt P35968).
T7 construct: purchased Eurofins DiscoverX (KINOMEscan scanEDGE 97)
Put plainly: KINOMEscan competition binding. To be noted: OR0642 1 µM; read-out: %Control. As for the experimental part: as §1, §2, §3

The target in a further test is T8, ZAP70 (Homo sapiens, UniProt P43403).
T8 construct: purchased Eurofins DiscoverX (KINOMEscan scanEDGE 97)
Put plainly: KINOMEscan competition binding. The note with it: OR0642 1 µM; read-out: %Control. As for the experimental part: as §1, §2, §3

Test [2] addresses T9, JAK2(JH1domain-catalytic) (Homo sapiens, UniProt O60674).
T9 construct: JAK2(JH1domain-catalytic); purchased Eurofins DiscoverX (KINOMEscan scanEDGE 97)
Nature of the test: KINOMEscan competition binding. The note with it: OR0642 1 µM; read-out: %Control. As for the experimental part:
as §1, §2, §3

The next test concerns the target T10, ULK2 (Homo sapiens, UniProt Q8IYT8).
T10 construct: purchased Eurofins DiscoverX (KINOMEscan scanEDGE 97)
Put plainly: KINOMEscan competition binding. The note with it: OR0642 1 µM; read-out: %Control. As for the experimental part:
as §1, §2, §3

The target of the next test is T11, MAPKAPK2 (Homo sapiens, UniProt P49137).
T11 construct: purchased Eurofins DiscoverX (KINOMEscan scanEDGE 97)
Put plainly: KINOMEscan competition binding. The note with it: OR0642 1 µM; read-out: %Control. As for the experimental part:
as §1, §2, §3

Another test has as its target T12, SRPK3 (Homo sapiens, UniProt Q9UPE1).
T12 construct: purchased Eurofins DiscoverX (KINOMEscan scanEDGE 97)
Nature of the test: KINOMEscan competition binding. To be noted: OR0642 1 µM; read-out: %Control. As for the experimental part: as §1, §2, §3

In a further test the target is T13, ABL1-nonphosphorylated (Homo sapiens, UniProt P00519).
T13 construct: purchased Eurofins DiscoverX (KINOMEscan scanEDGE 97)
Nature of the test: KINOMEscan competition binding. The note with it: OR0642 1 µM; read-out: %Control. The procedure:
as §1, §2, §3

The target in test [3] is T14, JAK3(JH1domain-catalytic) (Homo sapiens, UniProt P52333).
T14 construct: JAK3(JH1domain-catalytic); purchased Eurofins DiscoverX (KINOMEscan scanEDGE 97)
Nature of the test: KINOMEscan competition binding. To be noted: OR0642 1 µM; read-out: %Control. As for the experimental part:
as §1, §2, §3

Another test concerns the target T15, SRC (Homo sapiens, UniProt P12931).
T15 construct: purchased Eurofins DiscoverX (KINOMEscan scanEDGE 97)
Put plainly: KINOMEscan competition binding. The note with it: OR0642 1 µM; read-out: %Control. As for the experimental part:
as §1, §2, §3

The test system of the next test is 97 kinases. Put plainly: Kinome profiling (KINOMEscan, whole panel). The test is classed as binding, human. The note with it: OR0642 1 µM. The procedure:
as §1, §2, §3

For test [4], the system named is CCRF-CEM-CRISPR-sgRNA-dCK− cell line. Nature of the test: Proliferation of CCRF-CEM CRISPR-Cas9 cell line deficient for dCK. The test is classed as cell-based, human. To be noted: dT 200 µM, dC 1 µM. As for the experimental part:
CCFR-CEM cells (obtained from O. Hermine laboratory, Paris, France) were grown at 37 °C in RPMI 1640 with L-glutamine, supplemented with 10% heat-inactivated fetal calf serum. The experiments were carried out on 96-well plates under the following conditions: 14,000 cells per well, RPMI 1640 culture medium supplemented with 10% heat-inactivated fetal calf serum, 200 μM of dT, 1 μM of dC and a range of dilutions of each compound ranging from 40 μM to 10 pM, depending on the activity of the compounds (final 0.2% DMSO). Cells were incubated for 72 h under these different conditions and finally, incubated with 10 µl/well of CellTiter-Blue reagent (Promega) for 4 h at 37 °C. The amount of reduced dye formed by metabolically active cells was quantified by its fluorescence measured at 560 nm (excitation) and 590 nm (emission) in a microplate reader (CLARIOstar, BMG Labtech). A blank well without cells was used as a background control. Each experiment was performed at least three times (with technical triplicates) and data are presented as the mean ± SD.
Stable CCRF-CEM-CRISPR-sgRNA-dCK^− cell line was established by lentiviral transduction using purified lentiviral particles (Horizon Discovery) and blasticidin selection (10 µg/ml). […]

In test [5] the test system is UPNT525 patient-derived xenograft. Nature of the test: T-ALL PDX mouse model UPNT525. The class given is in vivo. The arrangement: hCD45+ populations determined by flux cytometry at day 19: unit not given here. The procedure: Temperature was maintained between 20 and 24 °C and the hygrometry between 40 and 60%. Sex was not considered in the study design and studies were realized in male mice, as toxicity and pharmacokinetics were performed previously in male mice. […] OR0642 was administered in its hydrochloride salt form (OR0642-HCl). Drug administration protocol is detailed in Fig. 4a. […] Patient-derived xenograft was generated from a primary-T-ALL (UPNT525) sample[28],[29]. Briefly, we injected 1,000,000 cells in 100 μl of PBS by intravenous (IV) retro orbital injection in NSG mice. […] Drug administration protocol is detailed in Fig. 5d. Disease propagation was monitored at day 19 by hCD45 detection in peripheral blood. […] Figures exemplifying the gating strategy are provided in the Supplementary Information (Supplementary Figs. 32 and 33).

[6] abbreviates: PDX mouse model UPNT525, dT 1,5 g/Kg, individual mice.

Data on two compounds can be found in article PMC10227015, “From a drug repositioning to a structure-based drug design approach to tackle acute lymphoblastic leukemia” (Nature Communications, 2023).

Several values for one entry are separate records, joined by “and”; a condition that tells them apart may be missing. Identical values can stand only once.

T13 sequence (P00519 whole entry): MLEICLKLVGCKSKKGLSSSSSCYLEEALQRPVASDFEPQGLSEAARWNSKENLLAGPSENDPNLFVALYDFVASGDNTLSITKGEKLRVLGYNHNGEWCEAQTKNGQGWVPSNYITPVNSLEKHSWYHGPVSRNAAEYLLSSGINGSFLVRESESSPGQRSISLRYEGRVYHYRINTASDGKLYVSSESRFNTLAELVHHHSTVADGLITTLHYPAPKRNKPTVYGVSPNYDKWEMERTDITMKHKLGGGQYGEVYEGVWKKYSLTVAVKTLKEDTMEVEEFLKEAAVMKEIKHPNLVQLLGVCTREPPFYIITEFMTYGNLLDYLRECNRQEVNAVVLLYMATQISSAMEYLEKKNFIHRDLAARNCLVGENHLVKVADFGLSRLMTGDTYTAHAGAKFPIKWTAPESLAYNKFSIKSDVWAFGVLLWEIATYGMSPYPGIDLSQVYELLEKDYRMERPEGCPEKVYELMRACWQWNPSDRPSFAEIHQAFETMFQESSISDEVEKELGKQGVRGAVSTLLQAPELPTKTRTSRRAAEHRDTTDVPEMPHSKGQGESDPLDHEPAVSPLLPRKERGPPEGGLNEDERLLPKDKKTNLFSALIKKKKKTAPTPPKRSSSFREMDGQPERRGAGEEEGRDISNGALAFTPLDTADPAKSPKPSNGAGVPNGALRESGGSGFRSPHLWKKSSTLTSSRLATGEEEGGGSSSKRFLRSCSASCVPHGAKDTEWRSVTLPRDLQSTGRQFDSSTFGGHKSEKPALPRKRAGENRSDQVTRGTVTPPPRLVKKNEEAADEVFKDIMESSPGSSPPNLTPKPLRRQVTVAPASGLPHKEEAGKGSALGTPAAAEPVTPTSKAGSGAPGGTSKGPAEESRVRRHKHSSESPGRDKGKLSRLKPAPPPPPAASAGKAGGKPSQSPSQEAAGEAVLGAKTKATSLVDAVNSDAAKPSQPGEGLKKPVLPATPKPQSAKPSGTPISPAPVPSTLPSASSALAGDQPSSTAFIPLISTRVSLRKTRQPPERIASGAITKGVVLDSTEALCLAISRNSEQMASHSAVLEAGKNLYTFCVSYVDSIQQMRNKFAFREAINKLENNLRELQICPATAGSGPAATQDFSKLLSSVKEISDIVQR
T8 sequence (P43403 whole entry): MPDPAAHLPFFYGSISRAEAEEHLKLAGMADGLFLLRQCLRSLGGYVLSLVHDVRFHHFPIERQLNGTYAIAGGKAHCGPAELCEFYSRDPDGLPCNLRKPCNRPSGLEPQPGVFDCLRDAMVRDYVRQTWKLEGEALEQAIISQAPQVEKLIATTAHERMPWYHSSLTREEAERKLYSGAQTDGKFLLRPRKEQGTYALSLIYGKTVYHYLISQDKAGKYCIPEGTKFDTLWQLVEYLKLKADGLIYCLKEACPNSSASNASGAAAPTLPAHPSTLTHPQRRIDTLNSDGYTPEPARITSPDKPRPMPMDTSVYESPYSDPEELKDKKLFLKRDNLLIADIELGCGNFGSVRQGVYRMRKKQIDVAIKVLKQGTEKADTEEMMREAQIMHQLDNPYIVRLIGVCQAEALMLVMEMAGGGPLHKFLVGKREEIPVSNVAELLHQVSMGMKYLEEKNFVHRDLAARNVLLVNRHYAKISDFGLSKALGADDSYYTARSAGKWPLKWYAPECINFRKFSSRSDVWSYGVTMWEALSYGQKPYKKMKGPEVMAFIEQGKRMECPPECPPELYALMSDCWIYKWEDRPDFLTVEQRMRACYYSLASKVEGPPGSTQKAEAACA
T12 sequence (Q9UPE1 whole entry): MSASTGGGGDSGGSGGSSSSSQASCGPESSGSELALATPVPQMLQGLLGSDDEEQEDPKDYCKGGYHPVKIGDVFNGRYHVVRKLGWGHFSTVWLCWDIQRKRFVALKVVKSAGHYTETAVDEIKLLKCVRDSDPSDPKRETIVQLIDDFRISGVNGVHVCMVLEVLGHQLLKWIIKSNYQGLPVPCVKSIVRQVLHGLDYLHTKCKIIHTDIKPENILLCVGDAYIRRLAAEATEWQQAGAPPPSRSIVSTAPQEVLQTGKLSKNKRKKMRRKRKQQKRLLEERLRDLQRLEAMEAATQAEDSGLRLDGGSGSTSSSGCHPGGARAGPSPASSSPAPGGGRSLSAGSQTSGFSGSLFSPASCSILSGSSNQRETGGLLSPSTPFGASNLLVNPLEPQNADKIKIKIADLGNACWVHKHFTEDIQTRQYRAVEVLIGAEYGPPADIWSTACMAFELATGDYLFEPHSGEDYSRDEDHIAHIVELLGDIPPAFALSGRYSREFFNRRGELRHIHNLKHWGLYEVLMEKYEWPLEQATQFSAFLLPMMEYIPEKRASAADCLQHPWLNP
T1 sequence (P36897 34-503): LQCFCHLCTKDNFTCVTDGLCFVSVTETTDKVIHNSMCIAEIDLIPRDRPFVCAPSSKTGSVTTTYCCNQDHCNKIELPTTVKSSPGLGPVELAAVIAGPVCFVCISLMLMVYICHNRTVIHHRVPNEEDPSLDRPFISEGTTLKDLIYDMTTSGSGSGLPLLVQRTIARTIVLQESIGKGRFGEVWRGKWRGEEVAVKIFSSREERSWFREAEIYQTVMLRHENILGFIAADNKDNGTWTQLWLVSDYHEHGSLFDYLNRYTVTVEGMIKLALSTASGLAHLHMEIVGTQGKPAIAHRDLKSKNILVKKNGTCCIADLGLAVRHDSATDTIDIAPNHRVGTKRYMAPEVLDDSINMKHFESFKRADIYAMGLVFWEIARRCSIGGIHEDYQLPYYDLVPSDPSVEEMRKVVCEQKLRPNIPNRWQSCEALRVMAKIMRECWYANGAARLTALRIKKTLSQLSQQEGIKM
T11 sequence (P49137 whole entry): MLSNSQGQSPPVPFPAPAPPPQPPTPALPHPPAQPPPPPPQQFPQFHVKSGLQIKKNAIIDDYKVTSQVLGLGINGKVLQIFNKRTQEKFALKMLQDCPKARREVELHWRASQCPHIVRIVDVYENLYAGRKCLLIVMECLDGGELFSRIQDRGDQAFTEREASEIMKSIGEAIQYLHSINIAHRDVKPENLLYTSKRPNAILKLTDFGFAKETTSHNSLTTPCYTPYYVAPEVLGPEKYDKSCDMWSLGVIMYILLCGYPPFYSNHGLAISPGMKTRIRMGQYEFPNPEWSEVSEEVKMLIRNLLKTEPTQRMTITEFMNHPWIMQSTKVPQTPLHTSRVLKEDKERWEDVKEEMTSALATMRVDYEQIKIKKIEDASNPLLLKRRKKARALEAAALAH
T6 sequence (P29597 871-1187 limits assumed): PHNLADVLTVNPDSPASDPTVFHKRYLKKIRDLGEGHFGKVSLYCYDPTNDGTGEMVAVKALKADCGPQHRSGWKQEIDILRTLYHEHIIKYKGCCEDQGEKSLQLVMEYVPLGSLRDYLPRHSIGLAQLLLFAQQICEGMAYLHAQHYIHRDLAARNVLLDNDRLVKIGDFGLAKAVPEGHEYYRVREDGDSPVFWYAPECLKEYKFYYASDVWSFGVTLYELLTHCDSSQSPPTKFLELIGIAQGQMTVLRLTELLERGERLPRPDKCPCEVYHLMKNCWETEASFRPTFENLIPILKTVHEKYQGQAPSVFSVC
T10 sequence (Q8IYT8 whole entry): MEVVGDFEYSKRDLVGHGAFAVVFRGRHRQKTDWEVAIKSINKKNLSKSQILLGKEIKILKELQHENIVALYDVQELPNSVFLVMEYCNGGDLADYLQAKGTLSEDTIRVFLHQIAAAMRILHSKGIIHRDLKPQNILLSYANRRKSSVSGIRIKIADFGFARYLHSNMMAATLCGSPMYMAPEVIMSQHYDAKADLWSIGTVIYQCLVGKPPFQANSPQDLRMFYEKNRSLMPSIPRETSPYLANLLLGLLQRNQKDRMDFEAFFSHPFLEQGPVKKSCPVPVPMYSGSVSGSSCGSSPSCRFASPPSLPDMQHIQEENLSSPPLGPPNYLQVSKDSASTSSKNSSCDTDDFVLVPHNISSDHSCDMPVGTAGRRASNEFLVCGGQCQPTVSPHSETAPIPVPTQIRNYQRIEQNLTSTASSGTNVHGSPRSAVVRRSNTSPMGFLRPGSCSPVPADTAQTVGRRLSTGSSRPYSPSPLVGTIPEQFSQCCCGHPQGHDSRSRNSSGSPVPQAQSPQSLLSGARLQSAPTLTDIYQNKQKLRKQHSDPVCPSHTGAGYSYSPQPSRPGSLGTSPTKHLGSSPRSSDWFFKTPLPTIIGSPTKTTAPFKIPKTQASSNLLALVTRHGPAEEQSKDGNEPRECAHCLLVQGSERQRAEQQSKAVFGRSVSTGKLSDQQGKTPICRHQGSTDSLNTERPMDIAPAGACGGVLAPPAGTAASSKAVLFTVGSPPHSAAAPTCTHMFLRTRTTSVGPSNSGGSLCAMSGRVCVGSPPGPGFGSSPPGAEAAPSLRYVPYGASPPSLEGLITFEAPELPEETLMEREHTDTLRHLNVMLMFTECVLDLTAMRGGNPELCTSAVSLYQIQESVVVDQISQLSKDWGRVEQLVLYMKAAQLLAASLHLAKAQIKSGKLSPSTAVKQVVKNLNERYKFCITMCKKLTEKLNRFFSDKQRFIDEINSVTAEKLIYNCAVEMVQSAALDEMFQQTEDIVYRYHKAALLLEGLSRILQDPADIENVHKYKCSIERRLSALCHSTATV

Regarding `CCCN(c1nc(-c2nc(N)cc(N)n2)cs1)c1cc(-c2ccc(S(=O)(=O)N3CCN(C)CC3)cc2C(F)(F)F)ccc1C` [OR0642], the remaining binding at 1 µM at TGFBR1 was 98%; on ROCK2, 99%; at PIM2, 100%; at RET it was 100%; on PIM3, 100%; in [1], 100%. For the same compound, the remaining binding at 1 µM was 100% at VEGFR2; 97% on ZAP70; 100% in [2]; 95% at ULK2; 100% at MAPKAPK2; 93% at SRPK3. The remaining binding at 1 µM came out at 94% on ABL1-nonphosphorylated, 97% in test [3] and 92% at SRC. Further, the “kinome-wide profiling” value with 97 kinases is reported as “none of the 97 kinases tested was inhibited”. The “effect on cell proliferation” value in [4] is reported as “did not affect cell proliferation”.
For the compound `Cc1cn([C@H]2C[C@H](O)[C@@H](CO)O2)c(=O)[nH]c1=O` [dT, thymidine], in [5] (setting [6]), the Survival days was 26 days and 38 days and 42 days; the “hCD45+ populations determined by flux cytometry at day 19” value is 164 and 330 and 108 and 177 and 168 and 318. In addition, the median survival in [5] (dT 1.5 g/kg, OR0642 40 mg/kg IP BID 5 days a week) was 38 days. Moreover, in test [5] (day 19), the “effect on disease progression” value is “significant decrease in disease progression”.
